# US12246010B2, “Formulations of tegavivint and related compounds” (Iterion Therapeutics, Inc., priority 2018, dated 2025)
# “And” between values parts separate entries of the source, which are not always exact repeats. Equal values may be shown once. Read-outs that look alike come from different tables or passages of the source.
# Assays:
# [1] = Tegavivint solubility in water and organic solvents; assay type: physicochemical
# Protocol: In organic solvents, tegavivint has solubilities as shown: DMSO (334 μg/mL), ethanol (260 μg/mL), methanol (299 μg/mL), acetone (1 mcg/mL), dichloromethane:ethanol (1:4) (1 mg/mL).
# [2] = Lung concentration after nebulized whole body exposure of mice; assay type: in vivo, bcat-Ex3 mice; details: for concentration at 5 day: male, bcat-Ex3, mouse, lung, inhaled
# Protocol: The purpose of this experiment was to test nebulized delivery of nanosuspensions.
# Tegavivint particles suspended in Poloxamer 188/sorbitol at a concentration of 25 mg/mL were used.
# (§1) These formulations were applied to the mice in the form of aerosols, through the method of whole body exposure. The mice were placed inside a plastic box. This box was sealed and connected by one of its sides to the outlet of the nebulizer device, and on the other side to a system of closed water. The whole procedure was carried out inside the fume hood of the animal room.
# For the first experiment, the nebulizer kit of SATER LABS was used. This device uses the jet system. The device was primed with 5 ml of the drug, i.e. 125 mg of tegavivint (BC2059), for each group of 5 mice, and then the device was connected to the power source for nebulization. The energy was supplied by a DeVilbiss compressor model 646, which allows 5-7 pounds of pressure, and a flow of 6-8 liters per minute. For the second experiment, the device used was the Altera, ultrasonic nebulizer.
# For the two experiments, 10 male bcat-Ex3 mice were used for each set. These mice were separated into 2 groups of 5 mice each. The first group received the drug daily, for 5 consecutive days. The second group received the drug only once (the fifth day). On day 5 all mice were sacrificed, lung harvested, and samples were stored at −30 degrees, in two labeled nylon bags, each containing the 5 samples from each group.
# [3] = Aerosol particle size distribution by cascade impactor; assay type: physicochemical; details: Covaris and Ball Mill (60 min); 0.1% Tween 80; 15.06 mg/mL; Hospitak
# Protocol: Particle size distribution (PSD) of the test article was measured at the breathing zone using an In Tox, mercer style cascade impactor.
# Particle size for test atmospheres was measured using an In-Tox Cascade impactor for suspensions prepared with 0.1% Tween 80 in ultrapure water, and the sponsor provided poloxamer suspension using a compressed air nebulizer.
# red blood cells = test: Hemolysis of red blood cells; assay type: cell-based; details: in the nanoparticle form or when dissolved in DMSO
# Description: It was hypothesized that the tween/ethanol/PEG/Vitamin E/Intralipid solvent-based excipients and probable drug precipitation were responsible for the infusion reactions and not tegavivint itself.
# [4] = system: bleomycin-induced idiopathic pulmonary fibrosis (IPF); test: Bleomycin-induced IPF mouse model: body weight; assay type: in vivo, C57BL/6 male mice
# Protocol: (§2) The purpose of this experiment was to investigate tegavivint nanosuspension in a mouse model of bleomycin-induced idiopathic pulmonary fibrosis (IPF). Test articles were as follows:
# Tegavivint (BC2059) in a nano-milled suspension 25 mg/mL in 0.625% poloxamer 188 and 10% sorbitol. The test article was refrigerated at about 4° C.
# Nebulizing equipment was Altera ultrasonic eRapid machine nebulizer (model #678G1002).
# Animals were 8-12 week old C57BL/6 male mice (Jackson Lab, Bar Harbor, ME).
# (§3) Murine model of pulmonary fibrosis was induced by intratracheally (IT) injected bleomycin (APP Pharmaceuticals, Schaumburg, IL). One dose of 0.025 U bleomycin dissolved in 50 microliters of Saline 0.9%, or PBS as control was administered to each animal on day 0.
# as §1, with “Tegavivint nanosuspension was” for “These formulations were”, “Group 3” for “the mice”, “room. In each treatment session, 5 ml of 25 mg/ml Tegavivint (125 mg) was nebulized over 15 min to each group of 4-5 mice in the chamber. […]” for “room.”
# The body weight of animals was recorded on Days 0, 5, 8, 12, 16, 19, and 21.
# [5] = system: bleomycin-induced idiopathic pulmonary fibrosis (IPF); test: Bleomycin-induced IPF mouse model: total lung collagen content (Hydroxyproline Assay); assay type: in vivo, C57BL/6 male mice
# Protocol: as §2, §3
# as §1, with “Tegavivint nanosuspension was” for “These formulations were”, “Group 3” for “the mice”, “room. In each treatment session, 5 ml of 25 mg/ml Tegavivint (125 mg) was nebulized over 15 min to each group of 4-5 mice in the chamber. […]” for “room.”
# On Day 21 all animals were sacrificed and lungs were harvested. Total lung collagen content was evaluated using the Hydroxyproline Assay as previously described (Morales-Nebreda L, et al. AJRCMB 2015). […] The resulting pellet was resuspended in 1 ml of 0.5 M NaOH and Sirius red staining was quantified spectrophotometrically (540 nm) using a colorimetric plate reader (Bio-Rad, Hercules, CA).
# [6] = system: bleomycin-induced idiopathic pulmonary fibrosis (IPF); test: Bleomycin-induced IPF mouse model: lung mechanics (FlexiVent compliance); assay type: in vivo, C57BL/6 male mice
# Protocol: as §2, §3
# Tegavivint nanosuspension was applied to Group 3 in the form of aerosols, through the method of whole body exposure. The mice were placed inside a plastic box. This box was sealed and connected by one of its sides to the outlet of the nebulizer device, and on the other side to a system of closed water. The whole procedure was carried out inside the fume hood of the animal room. In each treatment session, 5 ml of 25 mg/ml Tegavivint (125 mg) was nebulized over 15 min to each group of 4-5 mice in the chamber. To increase exposure of the mice to the aerosol, Tegavivint that precipitated in the aerosol chamber was collected with a syringe and re-nebulized a second and a third time. Mice were nebulized twice a day between day 5 and day 21 after administration of bleomycin. Group 1 and 2 received nebulized vehicle 5 ml in the same manner. […]
# [7] = mouse lung, Nebulizer (ultrasonic eRapid, Altera), 5 daily doses on Days 1-5
# [8] = Group 3: IT bleomycin Day 0, 5 ml of 25 mg/ml tegavivint aerosol BID Day 5-21, Day 21, individual animals
smiles,measurement,setting,value
"C[C@@H]1C[C@H](C)CN(S(=O)(=O)c2ccc3c(c2)C(=NO)c2cc(S(=O)(=O)N4C[C@H](C)C[C@H](C)C4)ccc2C3=NO)C1 [BC2059, tegavivint]",solubility,"[1]; DMSO, organic solvent or mixture, read-out: solubility in DMSO",334 µg/mL
same,solubility,"[1]; acetone, organic solvent or mixture, read-out: solubility in acetone",1 µg/mL
same,solubility,"[1]; dichloromethane:ethanol (1:4), organic solvent or mixture, read-out: solubility in dichloromethane:ethanol (1:4)",1000 µg/mL
same,solubility,"[1]; ethanol, organic solvent or mixture, read-out: solubility in ethanol",260 µg/mL
same,solubility,"[1]; methanol, organic solvent or mixture, read-out: solubility in methanol",299 µg/mL
same,solubility,"[1]; water, aqueous buffer, across the pH range of 2 to 10, read-out: solubility in water",< 0.25 µg/mL
same,concentration at 5 day,"[2]; Nebulizer (ultrasonic eRapid, Altera), 5 daily doses on Days 1-5, read-out: Lung Concentration (ng/g)",19100 ng/g
same,concentration at 5 day,"[2]; Nebulizer (ultrasonic eRapid, Altera), 5 daily doses on Days 1-5, read-out: Lung Concentration (ng/mL)",4770 ng/mL
same,lung tissue concentration in the previous testing (assayed concentration),"[2]; mouse lung, previous nebulization testing",~0.02 mg/g
same,Lung Concentration (ng/g),[2]; [7],17200 ng/g and 18800 ng/g and 12200 ng/g and 22900 ng/g
same,Lung Concentration (ng/mL),[2]; [7],4290 ng/mL and 4690 ng/mL and 3040 ng/mL and 5730 ng/mL
same,GSD,[3],2.21
same,MMAD,[3],1.26 µm
same,hemolysis of red blood cells,red blood cells,does not cause hemolysis
same,effect on body weight loss caused by bleomycin,"[4]; Group 3, inhaled",reversed the body weight loss
same,Change in body weight (%),"[4]; Group 3: IT bleomycin Day 0, 5 ml of 25 mg/ml tegavivint aerosol BID Day 5-21, individual animals",−2.83% and 5.2% and 7.3% (2×) and 7.9%
same,effect on total lung collagen content after bleomycin injury,"[5]; Group 3, inhaled",reversed this change
same,Hydroxyproline,[5]; [8],70.016 μg/half lung and 39.44 μg/half lung and 45.68 μg/half lung and 58.784 μg/half lung and 64.296 μg/half lung
same,effect on lung compliance after bleomycin injury,"[6]; Group 3, inhaled",reversed the compliance values to near those of the sham-treated controls
same,Compliance,[6]; [8],0.05515 ml/cm H2O and 0.05604 ml/cm H2O and 0.06762 ml/cm H2O and 0.0543 ml/cm H2O and 0.0561 ml/cm H2O
